The source of these data is patent US20230151014A1 (Repare Therapeutics Inc., priority 2020, published 2023).

The assay deals with T1, recombinant human Myt1 (Homo sapiens, UniProt Q99640).
T1 construct: full length PKMYT1 recombinant human protein expressed in insect cells
T1 sequence (Q99640 1-499): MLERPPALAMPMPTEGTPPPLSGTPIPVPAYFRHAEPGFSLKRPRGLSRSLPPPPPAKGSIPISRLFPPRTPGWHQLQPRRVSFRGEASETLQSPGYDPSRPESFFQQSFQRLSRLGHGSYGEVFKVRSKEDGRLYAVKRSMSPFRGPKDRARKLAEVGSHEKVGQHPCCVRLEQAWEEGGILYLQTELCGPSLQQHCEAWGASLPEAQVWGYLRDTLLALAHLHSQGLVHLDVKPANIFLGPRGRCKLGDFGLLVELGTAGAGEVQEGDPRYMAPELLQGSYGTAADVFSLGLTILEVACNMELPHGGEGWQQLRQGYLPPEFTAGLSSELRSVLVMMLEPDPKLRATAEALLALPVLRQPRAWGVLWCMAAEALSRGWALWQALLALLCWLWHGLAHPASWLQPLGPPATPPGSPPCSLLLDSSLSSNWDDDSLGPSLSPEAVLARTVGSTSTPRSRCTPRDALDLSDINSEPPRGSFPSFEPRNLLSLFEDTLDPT
In words: Myt1 enzymatic assay (ADP-Glo kinase assay, IC50 and % max inhibition). The assay is classed as biochemical. The following applies: recombinant human Myt1 18 nM, ATP 10 μM. As to the method: Detection of Myt1 kinase activity utilized a recombinant human Myt1 kinase assay measuring the hydrolysis of ATP using a commercially available ADP-Glo Assay (ADP-Glo™ Kinase Assay from Promega, 10 000 assays, #V9102). […] After this, 5 μL of compounds (diluted in reaction buffer to 0.5% DMSO) was added to the microplate and the plate was spun briefly and incubated at 22° C. for 15 minutes. Ultra-Pure Adenosine Triphosphate (ATP) solution (ADP-Glo kit from Promega) was diluted in reaction buffer and 5 μL was added to the microplate, spun down briefly and incubated for 60 minutes at 30° C. […] After the 60-minute incubation, 15 μL of ADP-Glo reagent was added and the plate was spun briefly and sealed and incubated in the dark for 40 minutes at 22° C. […] Luminescence was read using the Envision (250 ms integration). The IC50 and the % max inhibition were calculated for each inhibitor compound tested.

By IC50 is commonly meant the midpoint of a concentration-inhibition curve. `Cc1ccc(O)c(C)c1-n1c(N)c(C(N)=O)c2nc(N3CCCCC3)cnc21` [Compound 81]: the IC50 was below 10 nM. Regarding `Cc1ccc(O)c(C)c1-n1c(N)c(C(N)=O)c2nc(C3CCCCC3)cnc21` [Compound 83], the 50% inhibitory concentration (IC50) is below 10 nM. For the molecule `Cc1ccc(O)c(C)c1-n1c(N)c(C(N)=O)c2nc(N3CCCC3)cnc21` [Compound 85], the half-maximal inhibitory concentration (IC50) was below 10 nM. For the molecule `Cc1ccc(O)c(C)c1-n1c(N)c(C(N)=O)c2nc(C3=CCCCC3)cnc21` [Compound 86], the IC50 is below 10 nM.

Consider `CC(=O)N1CCN(c2cnc3c(n2)c(C(N)=O)c(N)n3-c2c(C)ccc(O)c2C)CC1` [Compound 87], for which the IC50 was below 10 nM.

`CCN(CC)c1cnc2c(n1)c(C(N)=O)c(N)n2-c1c(C)ccc(O)c1C` [Compound 88]: the IC50 was below 10 nM. Turning to `Cc1ccc(O)c(C)c1-n1c(N)c(C(N)=O)c2nc(N3CC4CCC(C3)O4)cnc21` [Compound 92], the IC50 is below 10 nM. On to `CCCCc1cnc2c(n1)c(C(N)=O)c(N)n2-c1c(C)ccc(O)c1C` [Compound 96], for which the IC50 is 10 nM. The same measure for `CC(=O)c1c(N)n(-c2c(C)ccc(O)c2C)c2ncc(-c3cnccn3)nc12` [Compound 97, 1-[6-amino-5-(3-hydroxy-2,6-dimethyl-phenyl)-2-pyrazin-2-yl-pyrrolo[2,3-b]pyrazin-7-yl]ethenone]: 12 nM; for `Cc1ccc(O)c(C)c1-n1c(N)c(C(N)=O)c2nc(C3CC3)c(C)nc21` [Compound 100]: below 10 nM; for `C=Cc1nc2c(C(N)=O)c(N)n(-c3c(C)ccc(O)c3C)c2nc1C(F)(F)F` [Compound 102, 6-amino-5-(3-hydroxy-2,6-dimethyl-phenyl)-3-(trifluoromethyl)-2-vinyl-pyrrolo[2,3-b]pyrazine-7-carboxamide]: 13 nM.

For `Cc1ccc(O)c(Cl)c1-n1c(N)c(C(N)=O)c2nc(C3CC3)cnc21` [Compound 104], the concentration for half-maximal inhibition (IC50) was below 10 nM. In the case of `CCCCc1cnc2c(n1)c(C(N)=O)c(N)n2-c1c(Cl)ccc(O)c1C` [Compound 107], the IC50 is 12 nM. Regarding `Cc1ccc(O)c(C)c1-n1c(N)c(C(N)=O)c2c(C)c(C)cnc21` [Compound 125], the IC50 was 16 nM. As to `Cc1ccc(O)c(C)c1-n1c(N)c(C(N)=O)c2cc(C(C)(C)O)cnc21` [Compound 131], the IC50 is below 10 nM. Take `Cc1ccc(O)c(C)c1-n1c(N)c(C(N)=O)c2cc(C(C)C)cnc21` [Compound 138]: the IC50 was below 10 nM. The figure for `Cc1ccc(O)c(C)c1-n1c(N)c(C(N)=O)c2cc(Br)cnc21` [Compound 141] is below 10 nM; for `Cc1ccc(O)c(C)c1-n1cc(C(N)=O)c2cc(C3CC3)cnc21` [Compound 143] it is below 10 nM; for `Cc1ccc(O)cc1-n1c(N)c(C(N)=O)c2nccnc21` [Compound 146] it is 1420 nM.

Turning to `Cc1ccc(O)c(C)c1-n1c(N)c(C(N)=O)c2nccnc21` [Compound 147], the concentration for half-maximal inhibition (IC50) came to 55 nM. On to `Cc1ccc(O)cc1-n1c(N)c(C(N)=O)c2ncc(-c3ccccc3)nc21` [Compound 150, 6-amino-5-(5-hydroxy-2-methyl-phenyl)-3-phenyl-pyrrolo[2,3-b]pyrazine-7-carboxamide], for which the 50% inhibitory concentration (IC50) worked out at 1350 nM.

Take `Cc1ccc(O)cc1-n1c(N)c(C(N)=O)c2ncc(OCc3ccccc3)nc21` [Compound 151]: the IC50 was found to be 2750 nM. For `Cc1ccc(O)cc1-n1c(N)c(C(N)=O)c2ncc(OCc3cccnc3)nc21` [Compound 153, 6-amino-5-(5-hydroxy-2-methyl-phenyl)-3-(3-pyridylmethoxy)pyrrolo[2,3-b]pyrazine-7-carboxamide], the IC50 was found to be 3550 nM.

In the case of `Cc1ccc(O)cc1-n1c(N)c(C(N)=O)c2ncc(OCCN3CCOCC3)nc21` [Compound 154], the 50% inhibitory concentration (IC50) turned out to be 6350 nM. Consider `Cc1ccc(O)cc1-n1c(N)c(C(N)=O)c2ncc(-c3cn[nH]c3)nc21` [Compound 155], for which the IC50 turned out to be 1020 nM. As to `Cc1ccc(O)cc1-n1c(N)c(C(N)=O)c2ncc(-c3cccc(C(N)=O)c3)nc21` [Compound 156], the IC50 was found to be 465 nM. As to `CC(=O)Nc1cccc(-c2cnc3c(C(N)=O)c(N)n(-c4cc(O)ccc4C)c3n2)c1` [Compound 157], the IC50 is 1240 nM.

Take `Cc1ccc(O)cc1-n1c(N)c(C(N)=O)c2ncc(C#Cc3ccccn3)nc21` [Compound 158]: the IC50 was 953 nM. With `Cc1ccc(O)cc1-n1c(N)c(C(N)=O)c2ncc(CCc3ccccn3)nc21` [Compound 159], the IC50 is 1720 nM. On to `Cc1ccc(O)cc1-n1c(N)c(C(N)=O)c2ncc(C#Cc3cccnc3)nc21` [Compound 160, 6-amino-5-(5-hydroxy-2-methyl-phenyl)-3-[2-(3-pyridyl)ethynyl]pyrrolo[2,3-b]pyrazine-7-carboxamide], for which the IC50 was determined as 554 nM. For the molecule `Cc1ccc(O)cc1-n1c(N)c(C(N)=O)c2ncc(CCCN3CCOCC3)nc21` [Compound 161], the IC50 was 671 nM. The figure for `Cc1ccc(O)cc1-n1c(N)c(C(N)=O)c2ncc(CCc3cccnc3)nc21` [Compound 162, 6-amino-5-(5-hydroxy-2-methyl-phenyl)-3-[2-(3-pyridyl)ethyl]pyrrolo[2,3-b]pyrazine-7-carboxamide] is 596 nM.

In the case of `Cc1ccc(O)cc1-n1c(N)c(C(N)=O)c2ncc(C#CCN3CCOCC3)nc21` [Compound 163], the IC50 was 334 nM. The figure for `Cc1cnc2c(C(N)=O)c(N)n(-c3cc(O)ccc3C)c2n1` [Compound 167] is 361 nM; for `Cc1nc2c(C(N)=O)c(N)n(-c3c(Cl)ccc(O)c3C)c2nc1C` [Compound 168] it is below 10 nM; for `Cc1ccc(O)c(C)c1-n1c(N)c(C(N)=O)c2nc(C3CCC3)cnc21` [Compound 173, 6-amino-2-cyclobutyl-5-(3-hydroxy-2,6-dimethyl-phenyl)pyrrolo[2,3-b]pyrazine-7-carboxamide] it is below 10 nM. In the case of `Cc1ccc(O)c(C)c1-n1c(N)c(C(N)=O)c2nc(C(C)(C)F)cnc21` [Compound 178, 6-amino-2-(1-fluoro-1-methyl-ethyl)-5-(3-hydroxy-2,6-dimethyl-phenyl)pyrrolo[2,3-b]pyrazine-7-carboxamide], the IC50 was below 10 nM.

As to `Cc1ccc(O)c(C)c1-n1c(N)c(C(N)=O)c2cc(Br)c(C)nc21` [Compound 187], the half-maximal inhibitory concentration (IC50) was below 10 nM. For the molecule `Cc1ccc2c(C(N)=O)c(N)n(-c3c(C)ccc(O)c3C)c2n1` [Compound 193], the IC50 was below 10 nM. With `Cc1ccc(O)c(C)c1-n1c(N)c(C(N)=O)c2nc(C3(C(F)(F)F)CC3)cnc21` [Compound 198, 6-amino-5-(3-hydroxy-2,6-dimethyl-phenyl)-2-[1-(trifluoromethyl)cyclopropyl]pyrrolo[2,3-b]pyrazine-7-carboxamide], the IC50 was below 10 nM. On to `C=C(C)c1cnc2c(n1)c(C(N)=O)c(N)n2-c1c(C)ccc(O)c1C` [Compound 202], for which the IC50 is below 10 nM.

Consider `Cc1ccc(O)c(C)c1-n1cc(C(N)=O)c2nc(C)c(C)nc21` [Compound 209, 5-(3-hydroxy-2,6-dimethyl-phenyl)-2,3-dimethyl-pyrrolo[2,3-b]pyrazine-7-carboxamide], for which the IC50 came to 28 nM. The figure for `Cc1ccc(O)cc1-n1c(N)c(C(N)=O)c2ncc(C(F)(F)F)cc21` [Compound 212, 2-amino-1-(5-hydroxy-2-methyl-phenyl)-6-(trifluoromethyl)pyrrolo[3,2-b]pyridine-3-carboxamide] is 3440 nM. For `Cc1ccc(O)cc1-n1c(N)c(C(N)=O)c2nc(C(F)(F)F)ccc21` [Compound 213], the IC50 was found to be 195 nM. The same measure for `Cc1ccc(O)c(C)c1-n1c(N)c(C(N)=O)c2nc(-c3nccs3)c(C#CC3CC3)nc21` [Compound 214, 6-amino-3-(2-cyclopropylethynyl)-5-(3-hydroxy-2,6-dimethyl-phenyl)-2-thiazol-2-yl-pyrrolo[2,3-b]pyrazine-7-carboxamide]: 136 nM. Consider `Cc1ccc(O)c(C)c1-n1c(N)c(C(N)=O)c2nc(C#CCN3CCOCC3)c(C#CCN3CCOCC3)nc21` [Compound 215], for which the IC50 came to 24 nM. Take `Cc1ccc(O)c(C)c1-n1c(N)c(C(N)=O)c2nc(-c3nccs3)c(C#CCN3CCOCC3)nc21` [Compound 216]: the IC50 is 76 nM.

In the case of `Cc1ccc(O)c(C)c1-n1c(N)c(C(N)=O)c2nc(C#CCN3CCOCC3)cnc21` [Compound 217], the IC50 was determined as 168 nM. The same measure for `Cc1ccc(O)c(C)c1-n1c(N)c(C(N)=O)c2ncc(C#CCN3CCOCC3)nc21` [Compound 218]: 22 nM. In the case of `Cc1ccc(O)c(C)c1-n1c(N)c(C(N)=O)c2nc(C#N)cnc21` [Compound 219, 6-amino-2-cyano-5-(3-hydroxy-2,6-dimethyl-phenyl)pyrrolo[2,3-b]pyrazine-7-carboxamide], the IC50 was determined as 46 nM.
